In paper PMC9200625, “Identification and Functional Characterization of Peptides With Antimicrobial Activity From the Syphilis Spirochete, Treponema pallidum” (Frontiers in Microbiology, 2022):
Where two headings read alike, the source gives them in different places.

Key:
[1] = tested on: E. coli ATCC 9723H; assay type: cell-based; details: range over 3–9 independent experiments
Method: (§1) Bacterial strains used in this study were: E. coli ATCC 9723H, Pseudomonas aeruginosa ATCC 10148, Staphylococcus aureus ATCC 6538P (penicillin resistant), Streptococcus pyogenes (hospital isolate, strain unknown), Mycobacterium smegmatis MC^2155, N. gonorrhoeae ATCC 700825 (streptomycin resistant), and Salmonella enterica subsp. enterica serovar Typhimurium SL1344 (streptomycin resistant). E. coli, P. aeruginosa, S. aureus, M. smegmatis, and S. enterica were cultured aerobically at 37°C in Mueller Hinton broth (MHB) (Sigma-Aldrich, MO, United States) and on nonselective Mueller Hinton agar (MHA) plates. S. pyogenes was cultured in 5% carbon dioxide at 37°C in MHB supplemented with 5% lysed horse blood (Quad Five, MT, United States) (MHB + 5% HB) and on nonselective MHA plates supplemented with 5% defibrinated sheep blood (Quad Five, MT, United States) (MHA + 5% SB). N. gonorrhoeae was cultured in 5% carbon dioxide at 37°C in gonococcal (GC) chocolate broth medium and on nonselective GC agar plates [GC medium base (BD Difco, MD, United States) supplemented with 1% BBL™ hemoglobin (BD Biosciences, MD, United States) and 1% IsoVitaleX (BD Biosciences, MD, United States)]. Prior to antimicrobial susceptibility assays (as described below), N. gonorrhoeae cultures were subcultured on nonselective GC agar plates (as described above), to ensure bacterial viability. All bacterial stocks were stored in 20% glycerol at –80°C.
(§2) Bacterial suspensions were prepared by transferring bacterial colonies into MHB and resuspending using a vortex mixer to ensure complete suspension of any bacterial aggregates. Turbidity of the colony suspensions was adjusted spectrophotometrically to the required optical densities to achieve a turbidity equivalent to that of a 0.5 McFarland standard (1–2 × 10^8 CFU/mL) followed by dilution in MHB to achieve the standardized microbial inoculum of approximately 5 × 10^5 CFU/mL. Total viable counts (TVC) were routinely performed on all inoculum suspensions to ensure correct bacterial cell densities. The standardized bacterial suspensions were then incubated with two-fold serial dilutions of each peptide (dissolved in 11 μL of ultrapure sterile water; final peptide concentration range of 256 μg/mL–0.5 μg/mL) in Greiner polypropylene round bottom 96-well microtiter plates (Sigma-Aldrich, MO, United States). Each peptide was tested once per experiment, with a range of 3–9 independent experiments performed per peptide. Negative growth/sterility control wells contained bacterial growth media (100 μL) and the peptide solvent (11 μL of ultrapure sterile water). Positive growth control wells contained the standardized number of bacterial cells (100 μL of ∼ 5.0 × 10^5 CFU/mL) and peptide solvent (11 μL of ultrapure sterile water). Plates were incubated at 37°C for 16–24 h and MICs were determined using the unaided eye to identify the lowest concentration of AMP that inhibited visible growth of the tested bacterial species. If the sterility control well was turbid, the test was not considered valid. MBCs were determined by plating the entire content of the wells containing the peptide/bacteria mixture representing the MIC and the entire contents of the preceding wells containing two-fold and four-fold more concentrated AMP dilutions onto nonselective agar plates.

[2] = tested on: P. aeruginosa ATCC 10148; assay type: cell-based, Pseudomonas aeruginosa; details: range over 3–9 independent experiments
Method: as §1, §2

[3] = tested on: S. enterica SL1344; assay type: cell-based, Salmonella enterica subsp. enterica serovar Typhimurium; details: range over 3–9 independent experiments
Method: as §1
(§3) Bacterial suspensions were prepared by transferring bacterial colonies into MHB and resuspending using a vortex mixer to ensure complete suspension of any bacterial aggregates. Turbidity of the colony suspensions was adjusted spectrophotometrically to the required optical densities to achieve a turbidity equivalent to that of a 0.5 McFarland standard (1–2 × 10^8 CFU/mL) followed by dilution in MHB to achieve the standardized microbial inoculum of approximately 5 × 10^5 CFU/mL. Total viable counts (TVC) were routinely performed on all inoculum suspensions to ensure correct bacterial cell densities. […] Plates were incubated at 37°C for 16–24 h and MICs were determined using the unaided eye to identify the lowest concentration of AMP that inhibited visible growth of the tested bacterial species. […] MBCs were determined by plating the entire content of the wells containing the peptide/bacteria mixture representing the MIC and the entire contents of the preceding wells containing two-fold and four-fold more concentrated AMP dilutions onto nonselective agar plates.

[4] = tested on: S. aureus ATCC 6538P; assay type: cell-based, Staphylococcus aureus; details: range over 3–9 independent experiments
Method: as §1, §3

[5] = tested on: S. pyogenes Unknown strain; Clinical Isolate; assay type: cell-based, Streptococcus pyogenes; details: range over 3–9 independent experiments
Method: as §1, §2

[6] = tested on: M. smegmatis MC^2155; assay type: cell-based, Mycobacterium smegmatis; details: range over 3–9 independent experiments
Method: as §1, §2

[7] = tested on: N. gonorrhoeae ATCC 700825; assay type: cell-based, Neisseria gonorrhoeae; details: 3-h incubation 37°C 5% CO2, TVCs versus positive growth control, all of three to six independent experiments
Method: as §1
The potential antimicrobial activity of the T. pallidum peptides against N. gonorrhoeae was determined using a modified agar dilution method. In this assay, N. gonorrhoeae colonies from GC chocolate agar plates were resuspended in MHB and the turbidity of the suspension was adjusted, as described above, to achieve the standardized microbial inoculum of approximately 5 × 10^5 CFU/mL. A two-fold serial dilution of the peptides (11 μL in sterile ultrapure water) was then prepared in wells 1–10 of a 96-well sterile polypropylene plate to obtain a dilution series corresponding to 10 times the required testing concentrations (2,560, 1,280, 640, 320, 160, 80, 40, 20, 10, 5 μg/mL). The bacterial suspension (100 μL) was dispensed into the wells containing the peptides. A negative growth/sterility control (well 12) contained bacterial growth media (100 μL) and the peptide solvent (11 μL of ultrapure sterile water). A positive growth control (well 11) contained the standardized number of bacterial cells (100 μL of ∼ 5.0 × 10^5 CFU/mL) and peptide solvent (11 μL of ultrapure sterile water). The 96-well plate was then incubated at 37°C in an atmosphere of 5% CO2 for 3 h to allow for peptide binding and antimicrobial activity. After the incubation period, an aliquot (20 μL) from wells 1–12 was removed and spotted onto the surface of a GC chocolate agar plate. N. gonorrhoeae spotted plates and TVC plates were incubated at 37°C in an atmosphere of 5% CO2 for 18–24 h. […] To determine the bactericidal activity of peptides, total viable counts (TVCs) were also prepared on GC chocolate agar plates for the 3 h-incubated peptide/bacteria mixtures. These counts were compared with TVCs from the corresponding positive growth wells to give the percentage of bacteria killed by each of the peptides following the 3-h incubation.

[8] = broth microdilution in MHB, ~5 × 10^5 CFU/mL, peptide 256–0.5 μg/mL two-fold dilutions, 37°C 16–24 h, visible growth by unaided eye
[9] = wells at MIC, two-fold and four-fold higher plated on nonselective agar, 24 h 37°C

SMILES: CC[C@H](C)[C@H](NC(=O)[C@H](CCCCN)NC(=O)[C@H](CCC(=O)O)NC(=O)[C@H](CCCCN)NC(=O)[C@H](CO)NC(=O)[C@H](CCCCN)NC(=O)[C@H](CCCNC(=N)N)NC(=O)[C@H](Cc1ccccc1)NC(=O)[C@H](Cc1ccccc1)NC(=O)[C@H](CC(=O)O)NC(=O)CNC(=O)[C@H](CC(C)C)NC(=O)[C@@H](N)CC(C)C)C(=O)NCC(=O)N[C@@H](CCCCN)C(=O)N[C@@H](CCC(=O)O)C(=O)N[C@@H](Cc1ccccc1)C(=O)N[C@@H](CCCCN)C(=O)N[C@@H](CCCNC(=N)N)C(=O)N[C@H](C(=O)N[C@H](C(=O)N[C@@H](CCC(N)=O)C(=O)N[C@@H](CCCNC(=N)N)C(=O)N[C@H](C(=O)N[C@@H](CCCCN)C(=O)N[C@@H](CC(=O)O)C(=O)N[C@@H](Cc1ccccc1)C(=O)N[C@@H](CC(C)C)C(=O)N[C@@H](CCCNC(=N)N)C(=O)N[C@@H](CC(N)=O)C(=O)N[C@@H](CC(C)C)C(=O)N[C@H](C(=O)N1CCC[C@H]1C(=O)N[C@@H](CCCNC(=N)N)C(=O)N[C@H](C(=O)N[C@@H](CCC(=O)O)C(=O)N[C@@H](CO)C(=O)O)[C@@H](C)O)C(C)C)[C@@H](C)CC)C(C)C)[C@@H](C)CC [LL-37]
- MIC [1, 8]: 1.8 to 7.1 µM
- MBC [1, 9]: 1.8 to 7.1 µM
- MIC [2, 8]: 3.6 to 14.2 µM
- MBC [2, 9]: 3.6 to 14.2 µM
- MIC [3, 8]: 1.8 to 28.5 µM
- MBC [3, 9]: 1.8 to 28.5 µM
- MIC ([4]; penicillin resistant strain, broth microdilution in MHB, ~5 × 10^5 CFU/mL, peptide 256–0.5 μg/mL two-fold dilutions, 37°C 16–24 h, visible growth by unaided eye): 7.1 to 28.5 µM
- MBC [4, 9]: 7.1 to 57.0 µM
- MIC ([5]; broth microdilution, cultured in MHB + 5% lysed horse blood, 5% carbon dioxide, ~5 × 10^5 CFU/mL, peptide 256–0.5 μg/mL, 37°C 16–24 h, visible growth): 28.5 to 57.0 µM
- MBC [5, 9]: 28.5 to 57.0 µM
- MIC [6, 8]: 0.45 to 1.8 µM
- MBC [6, 9]: 0.45 to 1.8 µM
- N. gonorrhoeae killing (%) ([7]; peptide 32 μg/mL): 100%
- N. gonorrhoeae killing (%) ([7]; peptide 64 μg/mL): 100%
- N. gonorrhoeae killing (%) ([7]; peptide 128 μg/mL): 100%
- N. gonorrhoeae killing (%) ([7]; peptide 256 μg/mL): 100%
